For nine compounds, GI50 and TGI results are on record in PubChem BioAssay (NCI).

The structures appear in SMILES notation. Values joined by “and” are separate entries in the source; they are usually repeats but may differ in a detail not shown here. Equal entries are not always repeated.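 Following 48 hours of exposure in 96-well plates, responses at five concentrations were used to interpolate endpoints linearly. Abbreviation: GI50, concentration required for 50% inhibition of growth. TGI is the concentration that stops growth completely.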

Among the test systems are HL-60(TB) leukemia; HOP-62 NSCLC; HT29 colon; MDA-MB-231 breast; NCI-H23 lung; NCI-H522 lung; PC-3 prostate; SK-MEL-28 melanoma; SNB-75 CNS; CCRF-CEM leukemia.
Experiment in all cases: NCI tumour cell line growth inhibition, 48 h

With `O=c1c2cc(-c3ccccc3)sc2ncn1Cc1ccc(Cl)c(Cl)c1`, the GI50 in the assay with HL-60(TB) leukemia is 14.9 µM; with HOP-62 NSCLC, 10.3 µM; in the assay on HT29 colon, 67.7 µM; in the assay on MDA-MB-231 breast, 3.92 µM; with NCI-H23 lung it was 17.3 µM; with NCI-H522 lung it was 6.43 µM. For the same compound, the values for the GI50 in the assay with PC-3 prostate, with SK-MEL-28 melanoma and with SNB-75 CNS were 19.1 µM, 45.5 µM and 18.1 µM, respectively. Also, the TGI in the assay with HL-60(TB) leukemia was 34.1 µM; in the assay with HOP-62 NSCLC, 24.7 µM; in the assay on HT29 colon it was more than 100 µM; with MDA-MB-231 breast it was 25 µM; in the assay with NCI-H23 lung, 44.2 µM; in the assay on NCI-H522 lung, 53.1 µM. Besides, the figures for the TGI in the assay with PC-3 prostate, with SK-MEL-28 melanoma and in the assay with SNB-75 CNS were 55.1 µM, more than 100 µM and 48.7 µM, respectively.
For `CC1=C2C(=CC(C)(C)[C@@H]2O)C(=O)[C@](C)(O)C12CC2`, the GI50 was 0.00901 µM and 0.0194 µM in the assay on HL-60(TB) leukemia; 0.0233 µM in the assay on HOP-62 NSCLC; 0.00623 µM with HT29 colon; 0.0513 µM in the assay with MDA-MB-231 breast; 0.0157 µM in the assay with NCI-H23 lung; 0.0137 µM with NCI-H522 lung. Further, the GI50 in the assay on SNB-75 CNS is 0.0315 µM and < 0.0142 µM. Moreover, the TGI is 0.0495 µM and 0.0832 µM in the assay with HL-60(TB) leukemia; 0.1 µM and 0.0872 µM in the assay with HOP-62 NSCLC; 0.208 µM and 0.0713 µM in the assay on HT29 colon; 0.0607 µM and 0.0266 µM in the assay on NCI-H23 lung; 0.0484 µM and < 0.0232 µM in the assay with NCI-H522 lung; 0.164 µM and 0.0194 µM in the assay on PC-3 prostate. For the same compound, the TGI in the assay with SK-MEL-28 melanoma was 0.0756 µM and 0.0891 µM; in the assay with SNB-75 CNS, 0.0723 µM and 0.0272 µM.
For the compound `Oc1c(Cl)cc(Cl)c2ccc(Cn3cc(-c4cc(C(F)(F)F)cc(C(F)(F)F)c4)nn3)nc12`, the GI50 was 0.305 µM in the assay with CCRF-CEM leukemia; 15.5 µM in the assay with HOP-62 NSCLC; 2.04 µM in the assay with HT29 colon; 2 µM in the assay on MDA-MB-231 breast; 3.05 µM with NCI-H23 lung; 1.25 µM in the assay with NCI-H522 lung. Moreover, the GI50 in the assay on PC-3 prostate is 2.81 µM; in the assay on SK-MEL-28 melanoma it was 1.7 µM; in the assay with SNB-75 CNS, 1.47 µM. Besides, the TGI in the assay with CCRF-CEM leukemia was found to be 5.49 µM; in the assay with HOP-62 NSCLC it was 30.7 µM; with HT29 colon, 5.1 µM; in the assay on MDA-MB-231 breast it was 4.95 µM; with NCI-H23 lung, 9.88 µM; in the assay with NCI-H522 lung, 3.55 µM. The results for the TGI in the assay with PC-3 prostate, with SK-MEL-28 melanoma and in the assay on SNB-75 CNS were 10.3 µM, 3.48 µM and 8.09 µM, respectively.
As for `NS(=O)(=O)c1ccc(N2N=C3c4ccccc4CC3C2c2cccs2)cc1` (stereo unspecified), the GI50 is 31.8 µM in the assay with CCRF-CEM leukemia; 16.9 µM in the assay on HOP-62 NSCLC; 26.1 µM in the assay with HT29 colon; 16.8 µM with MDA-MB-231 breast; 20.3 µM in the assay with NCI-H23 lung; 39.3 µM in the assay with NCI-H522 lung. Further, the GI50 was 22.1 µM with PC-3 prostate, 75.6 µM in the assay on SK-MEL-28 melanoma and 31.1 µM with SNB-75 CNS. For the same compound, the TGI with CCRF-CEM leukemia was more than 100 µM; in the assay on HOP-62 NSCLC it was 36.8 µM; in the assay with HT29 colon, more than 100 µM; in the assay on MDA-MB-231 breast, 40.8 µM; in the assay on NCI-H23 lung it was 48.7 µM; in the assay on NCI-H522 lung, more than 100 µM. Besides, the TGI with PC-3 prostate was 59.5 µM; in the assay on SK-MEL-28 melanoma, more than 100 µM; in the assay with SNB-75 CNS it was more than 100 µM.
Take `O=C(Nc1ccc(F)cc1F)c1cc(Cl)ccc1O`: the GI50 with CCRF-CEM leukemia is 3.04 µM; in the assay on HOP-62 NSCLC it was 1.2 µM; with HT29 colon, 3.62 µM; with MDA-MB-231 breast, 1.74 µM; in the assay on NCI-H23 lung, 1.6 µM; with NCI-H522 lung it was 0.974 µM. The GI50 with PC-3 prostate was 1.88 µM; in the assay on SK-MEL-28 melanoma, 0.754 µM; in the assay with SNB-75 CNS, 1.09 µM. Moreover, the TGI in the assay with CCRF-CEM leukemia was 18.1 µM; in the assay on HOP-62 NSCLC it was 4.37 µM; in the assay with HT29 colon, more than 100 µM; in the assay on MDA-MB-231 breast it was 7.48 µM; in the assay on NCI-H23 lung, 8.27 µM; with NCI-H522 lung, 10.8 µM. Also, the TGI with PC-3 prostate was determined as 41.2 µM; with SK-MEL-28 melanoma, 8.69 µM; in the assay with SNB-75 CNS, 3.79 µM.
Take `COc1ccc(Nc2nc3ccccc3c3occc23)cc1`: the GI50 in the assay with HL-60(TB) leukemia is 10.3 µM; in the assay with HOP-62 NSCLC, 10 µM; with MDA-MB-231 breast, 1.34 µM; in the assay on NCI-H23 lung, 5.72 µM; with NCI-H522 lung it was 14.5 µM; in the assay on PC-3 prostate it was 12.9 µM. Further, the GI50 with SK-MEL-28 melanoma is 7.19 µM. Besides, the TGI was more than 50 µM in the assay with HL-60(TB) leukemia; 23.7 µM in the assay with HOP-62 NSCLC; 10.3 µM with MDA-MB-231 breast; 12.4 µM in the assay with NCI-H23 lung; 33 µM in the assay on NCI-H522 lung; more than 50 µM with PC-3 prostate. In addition, the TGI with SK-MEL-28 melanoma came to 18.8 µM.
As for `CCc1ccccc1NC(=O)/C=C/c1ccccc1`, the TGI with CCRF-CEM leukemia, with HOP-62 NSCLC, in the assay on HT29 colon, in the assay with MDA-MB-231 breast, with NCI-H23 lung and with NCI-H522 lung was more than 100 µM throughout. The TGI in the assay with PC-3 prostate, in the assay with SK-MEL-28 melanoma and in the assay with SNB-75 CNS was more than 100 µM throughout.
As for `CCC(C)Oc1nc2c(c(=O)n(C)c(=O)n2C)n1C` (stereo unspecified), the GI50 in the assay with CCRF-CEM leukemia, in the assay with HL-60(TB) leukemia, in the assay with HOP-62 NSCLC, with HT29 colon, in the assay with MDA-MB-231 breast and in the assay on NCI-H23 lung was more than 100 µM in each case. For the same compound, the GI50 in the assay on PC-3 prostate, in the assay on SK-MEL-28 melanoma and with SNB-75 CNS was more than 100 µM in each case. The TGI with CCRF-CEM leukemia, in the assay on HL-60(TB) leukemia, in the assay on HOP-62 NSCLC, in the assay on HT29 colon, in the assay with MDA-MB-231 breast and in the assay with NCI-H23 lung was more than 100 µM throughout. The TGI in the assay on PC-3 prostate, with SK-MEL-28 melanoma and with SNB-75 CNS was more than 100 µM throughout.
Take `NC(=O)[C@@H](CC1CC1)[C@@H](CCC(F)(F)F)C(=O)N[C@H]1N=C(c2ccccc2)c2cccc(F)c2NC1=O`: the GI50 was 11.5 µM in the assay on HL-60(TB) leukemia; more than 100 µM in the assay on HOP-62 NSCLC; more than 100 µM in the assay on HT29 colon; 18.8 µM with MDA-MB-231 breast; more than 100 µM in the assay on NCI-H23 lung; more than 100 µM in the assay on NCI-H522 lung. Also, the figures for the GI50 in the assay with PC-3 prostate, in the assay with SK-MEL-28 melanoma and in the assay on SNB-75 CNS were 69 µM, 19.7 µM and 16.3 µM, respectively. The TGI was 39.1 µM in the assay with HL-60(TB) leukemia; more than 100 µM in the assay with HOP-62 NSCLC; more than 100 µM with HT29 colon; 42.7 µM with MDA-MB-231 breast; more than 100 µM in the assay with NCI-H23 lung; more than 100 µM in the assay with NCI-H522 lung. Moreover, the TGI was more than 100 µM in the assay on PC-3 prostate, 52.4 µM with SK-MEL-28 melanoma and more than 100 µM with SNB-75 CNS.
